Test results from publication PMC10313808, “Lipoxygenase inhibitory synthetic derivatives of methyl gallate regulate gene expressions of COX-2 and cytokines to reduce animal model arthritis” (Scientific Reports, 2023).

Tests used:
[1] = target: T1, Lipoxidase from Glycine max (15- LOX) (Glycine max, UniProt P08170); experiment: In-vitro LOX enzyme inhibition assay (spectrophotometric, 234 nm); assay type: biochemical
T1 construct: purchased Sigma (Sigma-Aldrich, UK)
T1 sequence (P08170 1-839): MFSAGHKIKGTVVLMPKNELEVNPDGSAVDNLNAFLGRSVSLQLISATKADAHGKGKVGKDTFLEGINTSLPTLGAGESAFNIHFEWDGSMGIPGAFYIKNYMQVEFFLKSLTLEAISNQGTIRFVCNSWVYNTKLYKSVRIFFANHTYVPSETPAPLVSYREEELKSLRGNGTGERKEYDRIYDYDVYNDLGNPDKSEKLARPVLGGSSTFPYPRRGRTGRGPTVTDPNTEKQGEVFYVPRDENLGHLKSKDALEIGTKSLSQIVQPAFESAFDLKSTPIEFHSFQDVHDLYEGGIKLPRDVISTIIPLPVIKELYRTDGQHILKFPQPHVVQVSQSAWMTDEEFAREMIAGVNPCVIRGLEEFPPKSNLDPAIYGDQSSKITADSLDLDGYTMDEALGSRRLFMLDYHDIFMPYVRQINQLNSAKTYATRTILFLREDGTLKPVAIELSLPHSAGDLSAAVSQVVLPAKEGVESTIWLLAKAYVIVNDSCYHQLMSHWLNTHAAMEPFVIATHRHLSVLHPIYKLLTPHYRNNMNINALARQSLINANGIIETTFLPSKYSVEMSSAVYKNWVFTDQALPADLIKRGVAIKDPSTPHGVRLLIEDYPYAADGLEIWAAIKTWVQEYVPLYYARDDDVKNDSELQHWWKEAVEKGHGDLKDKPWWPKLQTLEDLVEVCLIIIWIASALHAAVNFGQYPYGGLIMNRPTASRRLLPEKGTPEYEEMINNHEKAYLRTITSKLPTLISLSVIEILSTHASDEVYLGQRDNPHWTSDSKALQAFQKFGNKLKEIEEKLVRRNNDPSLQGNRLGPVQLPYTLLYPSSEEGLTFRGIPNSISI
Procedure: The LOX inhibition assays were performed with MGSDs. The inhibitory activity was measured by a modified spectrophotometric method[16],[39]. The plant LOX pathway is in many respects equivalent to the ‘arachidonic acid cascades’ in animals. For this reason, the in vitro inhibition of LOX constitutes a good model for the screening of compounds with anti-inflammatory potential[40],[41]. LOX (Lipoxidase from Glycine max (15- LOX); EC 1.13.11.12) type I-B (Soybean), and linoleic acid were purchased from Sigma (Sigma-Aldrich, UK) and used without further purification. Enzyme solution of 1.03 µM was prepared in 0.2 mM borate buffer, pH 8.5. The substrate, linoleic acid solution of 0.3 mM was also prepared in the borate buffer at the same pH. […] The final concentration of MGSDs used for the analysis was 20 µM. The assay mixture was made of 50 µL of LOX, 50 µL of the test solution and 360 µL of the substrate. The final volume was made up to 2 mL with corresponding borate buffer quantity. The activity of LOX was measured on the formation of […], which was monitored at 234 nm on spectrophotometer, (HITACHI U 2900, Japan). The same procedure was repeated with triplicate for the confirmation of LOX inhibitory activity[16],[39].

FCA-induced arthritis [2] = experiment: FCA-induced arthritis: hind paw volume; assay type: in vivo, Sprague–Dawley (SD) rats; conditions: for Percentage of inhibition (paw oedema) / Paw volume (mL) (mean ± SEM) 9th day / Paw volume (mL) (mean ± SEM) 18th day / Paw volume (mL) (mean ± SEM) 28th day / Paw volume (mL) (mean ± SEM) Initial day: FCA rats; for amount required relative to diclofenac for the same level of effect: in vivo FCA arthritis studies
Procedure: (§1) Chronic inflammation induced by Freund's Complete Adjuvant contains a suspension of heat-killed Mycobacterium tuberculosis in the vehicle (Chondrex, Labex Corporation). 100 μL of FCA (10 mg/mL) was injected intradermally to the left-hand paw of SD rats[42]. […] Induction of inflammation became chronic by 9–12 days and then rats were divided into 7 groups having 6 rats in each group. Everything possible was done to minimize the suffering of experimental animals. Minimum number of rats only were drafted to generate reliable data. 42 rats were randomly allocated into seven groups (6 × 7).
(§2) Group I (n = 6) served as normal rats that received an equal volume of vehicle control. Group II (n = 6) was arthritic model control treated with vehicle only. Group III (n = 6) was arthritic control which received the diclofenac (10 mg.kg^–1). Groups IV (n = 6), V (n = 6), VI (n = 6) and VII (n = 6) were treated with a low and high dose of methyl gallate (20 mg.kg^–1, 40 mg.kg^–1) and MGSD 1 (1 mg.kg^–1, 10 mg.kg^–1). The drugs were orally administered through oral gavage daily in PBS vehicle for 28 days.
By a plethysmometer the rat hind paw volume was measured from the initial day to final day (28th day) with successive intervals of 9 days, before and after FCA injection. The inhibition was calculated by the formula given below. Percentageinhibition=1-Meanchangesinpawvolumeoftreatedrat/Meanchangesinpawvolumeofuntreatedrat×100.

FCA-induced arthritis [3] = experiment: FCA-induced arthritis: organ index (liver, spleen); assay type: in vivo, Sprague–Dawley (SD) rats; conditions: FCA rats, end of experiment
Procedure: as §1, §2
At the end of the experiments, animals were euthanized using ketamine injection. The liver and spleen were removed at the end of the experiment and weighed. The index of the organs was expressed as the percentage (%) wet weight of organ versus body weight. The organ indexes were calculated by using the following formula Organindex=Weightoforgang/Bodyweightg×100.

[4] = tested on: ankle joints, liver, spleen, and thymus; experiment: FCA-induced arthritis: histological analysis; assay type: in vivo, Sprague–Dawley (SD) rats; conditions: FCA rats; for Histology of liver / Histology of spleen: dose not stated; for Histology of thymus: methyl gallate high dose
Procedure: The animals used for the FCA induced arthritis were euthanized at the end of the experiment and the ankle joints were separated from the hind paw and fixed in 10% buffered formalin. Similarly, liver, spleen, and thymus were also dissected carefully and immersed in fixative, and after 24 h each specimen were decalcified in 5% nitric acid, followed by embedding in paraffin wax and 4 µm thickness sections were prepared. These prepared sections were then mounted and stained with hematoxylin and[…] under brightfield compound binocular research microscope at 100X and 400X magnification and inflammation was graded.

[5] = target: T1, Lipoxidase from Glycine max (15- LOX); set-up: method as in PMID 29847215; conditions: read-out: IC50 (LOX enzyme); previous study ref 16; cited from earlier work

In the case of `O=C(O)COc1cc(C(=O)O)cc(OCC(=O)O)c1OCC(=O)O` [MGSD 1, 2,2′,2″-((5-carboxybenzene-1,2,3-triyl)tris(oxy)) tri acetic acid], the inhibition at 20 µM ([1]; 20 μM compound) is reported as 70 ± 3.45%, the “Percentage of inhibition (paw oedema)” value (FCA-induced arthritis [2]; 1 mg.kg^−1 oral) is reported as 68% and the “Paw volume (mL) (mean ± SEM) 9th day” value (FCA-induced arthritis [2]; 1 mg.kg^−1 oral) is reported as 0.97 ± 0.16 mL. The “Paw volume (mL) (mean ± SEM) 18th day” value (FCA-induced arthritis [2]; 1 mg.kg^−1 oral) was 0.68 ± 0.22 mL, the “Paw volume (mL) (mean ± SEM) 28th day” value (FCA-induced arthritis [2]; 1 mg.kg^−1 oral) was 0.59 ± 0.08 mL and the “Paw volume (mL) (mean ± SEM) Initial day” value (FCA-induced arthritis [2]; 1 mg.kg^−1 oral) was 0.50 ± 05 mL. The “Percentage of inhibition (paw oedema)” value (FCA-induced arthritis [2]; 10 mg.kg^−1 oral) was 70%, the “Paw volume (mL) (mean ± SEM) 9th day” value (FCA-induced arthritis [2]; 10 mg.kg^−1 oral) was 1.05 ± 0.16 mL and the “Paw volume (mL) (mean ± SEM) 18th day” value (FCA-induced arthritis [2]; 10 mg.kg^−1 oral) was 0.69 ± 0.22 mL. The “Paw volume (mL) (mean ± SEM) 28th day” value (FCA-induced arthritis [2]; 10 mg.kg^−1 oral) was 0.56 ± 0.08 mL, the “Paw volume (mL) (mean ± SEM) Initial day” value (FCA-induced arthritis [2]; 10 mg.kg^−1 oral) was 0.50 ± 0.05 mL and the “amount required relative to diclofenac for the same level of effect” value (FCA-induced arthritis [2]) was “approximately 1/12”. The “Organ index (%) Liver” value (FCA-induced arthritis [3]; 1 mg.kg^−1 oral) was 3.21 ± 0.12%, the “Organ index (%) Spleen” value (FCA-induced arthritis [3]; 1 mg.kg^−1 oral) was 0.24 ± 0.00% and the “Organ index (%) Liver” value (FCA-induced arthritis [3]; 10 mg.kg^−1 oral) was 3.18 ± 0.48%. For the same compound, the “Organ index (%) Spleen” value (FCA-induced arthritis [3]; 10 mg.kg^−1 oral) was 0.22 ± 0.00%, the “Histology of ankle joints” value ([4]; 10 mg.kg^-1) was “reduced oedema formation and neutrophil infiltration was found very low” and the Histology of liver [4] was “central sinusoid visible and hepatic array of cells normal”. For the same compound, the Histology of spleen [4] was “more efficient in controlling the inflammatory response than methyl gallate and diclofenac” and the Histology of thymus [4] was “more effective than the parent compound in reverting inflammation-based T-Cell proliferation”.

In the case of `COC(=O)c1cc(O)c(O)c(O)c1` [Methyl gallate], the IC50 [5] is listed as 30.7 µM, the inhibition at 200 µM ([1]; 0.2 mM compound) is listed as 61 ± 1.35% and the “Percentage of inhibition (paw oedema)” value (FCA-induced arthritis [2]; 20 mg.kg^−1 oral) is listed as 45%. The “Paw volume (mL) (mean ± SEM) 9th day” value (FCA-induced arthritis [2]; 20 mg.kg^−1 oral) was 1.32 ± 0.16 mL, the “Paw volume (mL) (mean ± SEM) 18th day” value (FCA-induced arthritis [2]; 20 mg.kg^−1 oral) was 1.24 ± 0.22 mL and the “Paw volume (mL) (mean ± SEM) 28th day” value (FCA-induced arthritis [2]; 20 mg.kg^−1 oral) was 1.18 ± 0.08 mL. The “Paw volume (mL) (mean ± SEM) Initial day” value (FCA-induced arthritis [2]; 20 mg.kg^−1 oral) was 0.56 ± 0.05 mL, the “Percentage of inhibition (paw oedema)” value (FCA-induced arthritis [2]; 40 mg.kg^−1 oral) was 37% and the “Paw volume (mL) (mean ± SEM) 9th day” value (FCA-induced arthritis [2]; 40 mg.kg^−1 oral) was 1.66 ± 0.18 mL. The “Paw volume (mL) (mean ± SEM) 18th day” value (FCA-induced arthritis [2]; 40 mg.kg^−1 oral) was 1.56 ± 0.24 mL, the “Paw volume (mL) (mean ± SEM) 28th day” value (FCA-induced arthritis [2]; 40 mg.kg^−1 oral) was 1.4 ± 0.09 mL and the “Paw volume (mL) (mean ± SEM) Initial day” value (FCA-induced arthritis [2]; 40 mg.kg^−1 oral) was 0.50 ± 0.05 mL. The “Percentage of inhibition (paw oedema)” value (FCA-induced arthritis [2]; 40 mg.kg^−1 oral, listed as methyl gallate) was 35–45%, the “amount required relative to diclofenac for the same level of effect” value (FCA-induced arthritis [2]) was “approximately five times of diclofenac” and the “Organ index (%) Liver” value (FCA-induced arthritis [3]; 20 mg.kg^−1 oral) was 3.59 ± 0.03 %. The “Organ index (%) Spleen” value (FCA-induced arthritis [3]; 20 mg.kg^−1 oral) was 0.27 ± 0.01%, the “Organ index (%) Liver” value (FCA-induced arthritis [3]; 40 mg.kg^−1 oral) was 3.63 ± 0.11 % and the “Organ index (%) Spleen” value (FCA-induced arthritis [3]; 40 mg.kg^−1 oral) was 0.28 ± 0.02%. The “Histology of ankle joints” value ([4]; 40 mg.kg^-1) was “synovial space with neutrophil infiltration, although much less than that of arthritic control”, the Histology of liver [4] was “hepatocyte arrays and central sinusoid area were seen to regain normalcy and a few necrotic cells were still visible” and the Histology of spleen [4] was “lesser degree of spleen reversion”. For the same compound, the Histology of thymus [4] was “effective in controlling inflammation-based T-Cell proliferation”.
